One test has as its target MAPK14 (human) (UniProt Q16539). In words: In vitro Inhibition of TNF-alpha Production in PBMC Cells.
In a further test the target is MAPK14 (UniProt Q16539). In words: In vitro Inhibition of MAPK14 Kinase Activity.
Another test concerns MAPK14 (BALB/cJ mice). In words: In vivo Inhibition of LPS-induced TNF-alpha Production. The settings on record: dose or concentration not given here.

This passage reports IC50 and inhibition results from the Kinase Knowledgebase extract (Sharma et al. 2016).

MAPK14 (human), sequence (Q16539 whole entry, looked up): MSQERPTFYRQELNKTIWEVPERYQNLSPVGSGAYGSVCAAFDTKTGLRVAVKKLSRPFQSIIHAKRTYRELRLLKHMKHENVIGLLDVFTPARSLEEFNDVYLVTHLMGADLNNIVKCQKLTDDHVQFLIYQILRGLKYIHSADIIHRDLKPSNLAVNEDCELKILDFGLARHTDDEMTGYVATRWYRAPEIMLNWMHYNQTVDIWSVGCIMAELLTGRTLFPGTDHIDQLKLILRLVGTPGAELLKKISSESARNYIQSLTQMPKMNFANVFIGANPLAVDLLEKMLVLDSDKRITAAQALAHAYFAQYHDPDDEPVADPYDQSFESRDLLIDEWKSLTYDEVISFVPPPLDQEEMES
MAPK14, sequence (Q16539 whole entry, looked up): as above

For `CC(=O)c1c(-c2ccc(F)cc2)c(-c2ccncc2)c(N2CCNCC2)n1C`, the IC50 at MAPK14 (human) was found to be 0.04 µM; at MAPK14, 10 µM. Besides, the inhibition in the test on MAPK14 (BALB/cJ mice) is 39%.
Regarding `Cn1c(C(=O)C2CC2)c(-c2ccc(F)cc2)c(-c2ccncc2)c1N1CCN(C(=O)C2CC2)CC1`, the IC50 against MAPK14 (human) is 0.036 µM; at MAPK14 it was 10 µM.
Take `COC(=O)c1c(-c2ccc(F)cc2)c(-c2ccncc2)c(N2CCOCC2)n1C`: the half-maximal inhibitory concentration (IC50) is 0.047 µM against MAPK14 (human) and 10 µM on MAPK14. Besides, the inhibition in the test with MAPK14 (BALB/cJ mice) is -41%.
The corresponding values for `COC(=O)C(=O)c1c(-c2ccc(F)cc2)c(-c2ccncc2)c(N2CCNCC2)n1C` are 0.028 µM, 10 µM and 52%.
Regarding `CCOC(=O)c1c(-c2cc(F)cc(F)c2)c(-c2ccncc2)c(Br)n1C`, the IC50 is 2.72 µM against MAPK14 (human) and > 10 µM on MAPK14. Besides, the inhibition with MAPK14 (BALB/cJ mice) was -36%.
As for `CN1CCN(c2c(-c3ccncc3)c(-c3ccc(F)cc3)c(C#N)n2C)CC1`, the values for the IC50 at MAPK14 (human) and at MAPK14 were 0.08 µM and 2 µM, respectively. In the test on MAPK14 (BALB/cJ mice), the inhibition came out at 47%.
Take `CC(=O)c1c(-c2ccc(F)cc2)c(-c2ccncc2)c(N2CCN(C(C)=O)CC2)n1C`: the IC50 on MAPK14 (human) came to 0.043 µM; at MAPK14, 2 µM.
As to `CC(=O)N1CCN(c2c(-c3ccncc3)c(-c3ccc(F)cc3)c(C#N)n2C)CC1`, the IC50 against MAPK14 (human) was determined as 0.154 µM; on MAPK14 it was 2 µM. Also, the inhibition with MAPK14 (BALB/cJ mice) was 81%.
For `Fc1ccc(-c2c[nH]c(CN3CCc4ccccc4C3)c2-c2ccncc2)cc1` the same measures were 0.04 µM, 2 µM and 63%.
Consider `Cn1c(N2CCCC2)c(-c2ccncc2)c(-c2ccc(F)cc2)c1C(C)(C)O`, for which the IC50 on MAPK14 (human) came to 0.192 µM; against MAPK14, 2 µM. Besides, the inhibition in the test on MAPK14 (BALB/cJ mice) came out at 37.7%.
In the case of `COC(=O)c1c(-c2ccc(F)cc2)c(-c2ccncc2)c(N2CCCC2)n1C`, the IC50 at MAPK14 (human) was 0.017 µM; on MAPK14, 10 µM. For the same molecule, the inhibition with MAPK14 (BALB/cJ mice) was -38%.
The corresponding values for `COC(=O)c1c(-c2ccc(F)cc2)c(-c2ccncc2)c(N2CCN(C)CC2)n1C` are 0.095 µM, 2 µM and 89%.
With `COC(=O)c1c(-c2ccc(F)cc2)c(-c2ccncc2)c(N)n1C`, the IC50 at MAPK14 (human) is 0.051 µM; against MAPK14, 10 µM. Moreover, the inhibition with MAPK14 (BALB/cJ mice) is 53.9%.
Regarding `CCCNC(=O)c1c(-c2ccc(F)cc2)c(-c2ccncc2)c(N2CCNCC2)n1C`, the IC50 against MAPK14 (human) and on MAPK14 was 10 µM in each case.
For `COC(=O)c1c(-c2ccc(F)cc2)c(-c2ccncc2)c(N2CCNCC2)n1C`, the results for the IC50 against MAPK14 (human) and against MAPK14 were 0.033 µM and 10 µM, respectively. The inhibition in the test with MAPK14 (BALB/cJ mice) came out at 73%.
For `COC(=O)c1c(-c2ccc(F)cc2)c(-c2ccncc2)c(Nc2ccc(N(C)C)cc2)n1C` the same measures were 0.118 µM, > 10 µM and 15%.
Take `CCCc1c(-c2ccnc(N[C@@H](C)c3ccccc3)n2)c(-c2ccc(F)cc2)cn1CCN1CCOCC1`: the results for the IC50 on MAPK14 (human) and against MAPK14 were 0.004 µM and 10 µM, respectively. Further, in the test with MAPK14 (BALB/cJ mice), the inhibition is -35%.
The molecule `COC(=O)c1c(-c2ccc(F)cc2)c(-c2ccncc2)c(NCCN(C)C)n1C` displayed an IC50 against MAPK14 (human) of 0.098 µM. Besides, the inhibition in the test on MAPK14 (BALB/cJ mice) was -43%.
For `CCNC(=O)N1CCN(c2c(-c3ccncc3)c(-c3ccc(F)cc3)c(C(=O)OC)n2C)CC1` the same measures were 2.92 µM and -38%.
The corresponding values for `O=C1CCCn2c(NCCN3CCOCC3)c(-c3ccncc3)c(-c3ccc(F)cc3)c21` are 2.56 µM and 51%.
With `COC(=O)c1c(-c2ccncc2)c(-c2ccc(F)cc2)c(C#CCN2CCOCC2)n1C`, on MAPK14 (human), the IC50 was found to be 0.788 µM. In addition, the inhibition in the test on MAPK14 (BALB/cJ mice) is 47%.
As for `O=C1c2c(-c3ccncc3)c(-c3ccc(F)cc3)cn2C(=O)N1Cc1ccccc1`, the concentration for half-maximal inhibition (IC50) at MAPK14 (human) came out at 0.026 µM. For the same molecule, in the test on MAPK14 (BALB/cJ mice), the inhibition turned out to be 51%.

Broadly, the IC50 is the concentration that gives 50% inhibition. The inhibition is the drop in the measured response relative to a control, in per cent.
